Active and inactive are the calls of the source. The rule behind the calls is not given here.
Tests used:
Endothelial cell [1] = assay: Induction of necrosis in neural stem cells co-cultured with vascular endothelial cells assessed as LDH release at 70 ug/mL after 10 hrs relative to control; format: functional, cell-based; settings: Mus musculus
[2] = Increase in apoptosis rate in neural stem cells co-cultured with vascular endothelial cells assessed as cell survival at 70 ug/mL after 10 hrs; format: functional; settings: Mus musculus, read-out: Activity
Endothelial cell [3] = assay: Induction of apoptosis in neural stem cells co-cultured with vascular endothelial cells assessed as nuclear condensation at 70 ug/mL after 10 hrs; format: functional, cell-based; settings: Mus musculus
Neural stem cell = assay: Induction of apoptosis in neural stem cells assessed as cell viability at 10 to 100 ug/mL by MTT assay; format: functional, cell-based; settings: Mus musculus
Endothelial cell [4] = assay: Induction of apoptosis in neural stem cells co-cultured with vascular endothelial cells assessed as DNA fragmentation at 70 ug/mL after 10 hrs; format: functional, cell-based; settings: Mus musculus
Endothelial cell [5] = assay: Induction of apoptosis in neural stem cells co-cultured with vascular endothelial cells assessed as inhibition of cell differentiation at 70 ug/mL after 10 hrs; format: functional, cell-based; settings: Mus musculus
Endothelial cell [6] = assay: Induction of apoptosis in neural stem cells co-cultured with vascular endothelial cells assessed as neurites degeneration at 70 ug/mL after 10 hrs; format: functional, cell-based; settings: Mus musculus

For c1cc2c(cc1CC1CO1)OCO2 (configuration not stated), the Activity (Endothelial cell [1]) was “inactive”, the viability at 70 µg/mL [2] was 92% and the Activity (Endothelial cell [3]) was “Active”. The Activity (Neural stem cell) was “inactive”, the Activity (Endothelial cell [4]) was “Active” and the Activity (Endothelial cell [5]) was “Active”. The Activity (Endothelial cell [6]) was “Active”.

Reference: ChEMBL document CHEMBL1139909, “Safrole oxide is a useful tool for investigating the effect of apoptosis in vascular endothelial cells on neural stem cell survival and differentiation in vitro” (2007)
